The subject of assay [1] is filtered, plasma-free human platelets. Nature of the assay: inhibition of aggregation of filtered human platelets after ADP or thrombin stimulation. Type of assay: cell-based. The following applies: Platelet. On the procedure:
(§1) The compounds of the formula I are in particular tested for their inhibiting action in blood platelet aggregation and the adhesion of fibrinogen to blood platelets. The measurement of aggregation and the binding of ^125 I-fibrinogen is carried out on filtered, plasma-free human platelets. Platelet activation is effected by means of ADP or thrombin.
As a functional test, the inhibition of aggregation of filtered human platelets is measured after ADP or thrombin stimulation by the compounds according to the invention. The IC50 value of inhibition is given.

The target of assay [2] is T1, glycoprotein IIb/IIIa localised on blood platelets (fibrinogen receptor) (Homo sapiens, UniProt P05106+P08514).
T1 construct: carried out on filtered, plasma-free human platelets; endogenous in cells; host or cells: filtered, plasma-free human platelets, stimulated with ADP (10 μM)
T1 sequence (P08514 32-887 limits assumed): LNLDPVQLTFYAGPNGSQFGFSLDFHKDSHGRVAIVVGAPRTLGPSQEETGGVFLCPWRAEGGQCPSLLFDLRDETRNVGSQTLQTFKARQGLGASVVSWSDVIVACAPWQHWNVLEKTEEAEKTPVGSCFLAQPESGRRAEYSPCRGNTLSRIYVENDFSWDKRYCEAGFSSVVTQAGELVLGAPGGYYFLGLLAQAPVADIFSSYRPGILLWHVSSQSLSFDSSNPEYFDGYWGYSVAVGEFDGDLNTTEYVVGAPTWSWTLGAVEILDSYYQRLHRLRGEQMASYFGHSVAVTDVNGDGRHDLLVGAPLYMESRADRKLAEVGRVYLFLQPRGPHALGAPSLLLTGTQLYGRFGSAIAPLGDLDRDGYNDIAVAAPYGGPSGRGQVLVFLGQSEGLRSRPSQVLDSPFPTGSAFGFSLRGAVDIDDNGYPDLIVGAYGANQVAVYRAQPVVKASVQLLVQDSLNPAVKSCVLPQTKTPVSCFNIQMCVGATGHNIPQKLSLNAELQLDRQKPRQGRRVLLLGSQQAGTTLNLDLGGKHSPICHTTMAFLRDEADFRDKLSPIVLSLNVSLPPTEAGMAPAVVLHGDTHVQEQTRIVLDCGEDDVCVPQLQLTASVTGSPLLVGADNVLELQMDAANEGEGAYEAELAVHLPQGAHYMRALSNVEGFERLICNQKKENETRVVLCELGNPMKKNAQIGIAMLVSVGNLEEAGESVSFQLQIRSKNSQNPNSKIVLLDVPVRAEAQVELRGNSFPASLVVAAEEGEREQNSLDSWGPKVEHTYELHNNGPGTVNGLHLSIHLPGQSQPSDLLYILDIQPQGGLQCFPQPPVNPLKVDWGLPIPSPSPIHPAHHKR
T1 sequence (P05106 27-788): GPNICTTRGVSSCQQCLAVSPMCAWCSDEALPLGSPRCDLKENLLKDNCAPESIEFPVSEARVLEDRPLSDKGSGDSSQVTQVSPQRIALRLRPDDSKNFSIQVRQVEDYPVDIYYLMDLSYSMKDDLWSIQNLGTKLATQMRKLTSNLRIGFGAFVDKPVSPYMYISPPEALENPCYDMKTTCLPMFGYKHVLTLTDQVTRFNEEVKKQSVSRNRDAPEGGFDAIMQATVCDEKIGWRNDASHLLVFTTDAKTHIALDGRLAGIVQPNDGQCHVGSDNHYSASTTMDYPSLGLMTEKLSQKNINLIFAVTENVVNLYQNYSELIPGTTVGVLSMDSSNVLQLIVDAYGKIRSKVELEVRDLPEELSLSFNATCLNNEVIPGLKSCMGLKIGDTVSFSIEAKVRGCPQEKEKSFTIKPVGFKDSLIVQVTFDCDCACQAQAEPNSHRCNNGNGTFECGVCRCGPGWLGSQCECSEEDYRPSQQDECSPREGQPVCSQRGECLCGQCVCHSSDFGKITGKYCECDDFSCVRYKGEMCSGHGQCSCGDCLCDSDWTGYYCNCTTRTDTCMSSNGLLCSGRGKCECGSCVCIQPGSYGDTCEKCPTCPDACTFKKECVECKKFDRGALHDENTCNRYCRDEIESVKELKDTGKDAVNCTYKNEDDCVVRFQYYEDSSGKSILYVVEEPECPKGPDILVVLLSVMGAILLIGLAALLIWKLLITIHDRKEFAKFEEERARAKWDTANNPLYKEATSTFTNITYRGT
Nature of the assay: inhibition of binding of ^125 I-fibrinogen to human platelets after stimulation with ADP. The conditions noted are these: after stimulation with ADP (10 μM).
From the text: Integrins are cell membrane glycoproteins and mediate cell adhesion by interaction with a large number of extracelluar proteins, such as fibronectin, laminin, fibrinogen, collagen, vitronectin, and yon Willebrand factor or with other cell membrane proteins, such as, for example, ICAM-1. An important receptor of the integrin family is glycoprotein IIb/IIIa localised on blood platelets (fibrinogen receptor)--a key protein in platelet-platelet interaction and thrombus formation. A central fragment in the receptor recognition sequence of these proteins is the tripeptide Arg--Gly--Asp (E. Ruoslahti and M. D. Pierschbacher, Science 238 (1987) 491-497; D. R. Phillips, I. F. Charo, L. V. Parise and L. A. Fitzgerald, Blood 71 (1988) 831-843).
as §1
The Ki value of the inhibition of binding of ^125 I-fibrinogen after stimulation with ADP (10 μm) is given.
Reference: J. S. Bennett and G. Vilaire, J. Clin. Invest. 64, (1979), 1393-1401.

Setting [3] is: ADP stimulation, read-out: Inhibition of platelet aggregation ADP, IC50 value of inhibition.
The mark [4] stands for this setting: thrombin stimulation, read-out: Inhibition of platelet aggregation Thrombin, IC50 value of inhibition.

Where two headings read alike, the source gives them in different places.

By IC50 is commonly meant the midpoint of a concentration-inhibition curve. Usually Ki stands for the equilibrium dissociation constant of an inhibitor or competing ligand from its target. Low readings indicate higher affinity, high ones lower affinity.

Turning to `CC(C)[C@H](NC(=O)[C@H](CC(=O)O)NC(=O)c1ccc(CC2CCN(C(=N)N)CC2)cc1)C(=O)O` [Example 1, p-(4-(N-Amidinopiperidinyl)methyl)benzoyl-L-aspartyl-L-valine], the half-inhibitory concentration (IC50) in assay [1] (setting [3]) stood at 8 µM; in assay [1] (setting [4]) it was 2 µM.

Regarding `N=C(N)N1CCC(Cc2ccc(C(=O)N[C@@H](CC(=O)O)C(=O)NC3CCCCC3)cc2)CC1` [Example 2, p-(4-(N-Amidinopiperidinyl)methyl)benzoyl-L-aspartylcyclohexylamide], the concentration for half-maximal inhibition (IC50) in assay [1] (setting [3]) was found to be 15 µM; in assay [1] (setting [4]) it was 10 µM.

For the molecule `N=C(N)N1CCC(Cc2ccc(C(=O)N[C@@H](CC(=O)O)C(=O)NCCC(c3ccccc3)c3ccccc3)cc2)CC1` [Example 3], the figures for the IC50 in assay [1] (setting [3]) and in assay [1] (setting [4]) were 15 µM and 5 µM, respectively.

Turning to `CC(C)NC(=O)[C@H](CC(=O)O)NC(=O)c1ccc(CC2CCN(C(=N)N)CC2)cc1` [Example 4], the results for the IC50 in assay [1] (setting [3]) and in assay [1] (setting [4]) were 20 µM and 15 µM, respectively. Further, the Ki in assay [2] came to 10 µM.

`CN(CC(=O)N[C@@H](CC(=O)O)C(=O)NCCC(c1ccccc1)c1ccccc1)C(=O)c1ccc(CNC(=N)N)cc1` [Example 9, p-Guanidinomethylbenzoylsarcosyl-L-aspartyl-3,3-diphenylpropylamide]: the IC50 in assay [1] (setting [3]) and in assay [1] (setting [4]) was 2 µM in each case. Further, in assay [2], the inhibitory constant (Ki) worked out at 1.8 µM.

As to `CN(CC(=O)N[C@@H](CC(=O)O)C(=O)NC(c1ccccc1)c1ccccc1)C(=O)[C@H]1CC[C@H](CNC(=N)N)CC1` [Example 12, trans-4 -Guanidinomethylcyclohexanecarboxylsarcosyl-L-aspartylbenzhydrylamide], the IC50 in assay [1] (setting [3]) came out at 8 µM; in assay [1] (setting [4]), 4 µM. Also, the Ki in assay [2] came to 3.1 µM.

Consider `CC(C)[C@H](NC(=O)[C@H](CC(=O)O)NC(=O)c1ccc(OC2CCN(C(=N)N)CC2)cc1)C(=O)O` [Example 14, p-(4-N-Amidinopiperidinyloxy)benzoyl-L-aspartyl-L-valine], for which the IC50 in assay [1] (setting [3]) stood at 4.5 µM; in assay [1] (setting [4]), 1.5 µM. For the same molecule, the Ki in assay [2] was 0.8 µM.

For the origin of these results see patent US5399570A, “Aspartic acid derivatives, and their use for inhibiting platelete aggregation” (Cassella Aktiengesellschaft, priority 1992, dated 1995).
